Experimental data taken from US10604487B2, “Pyridinol derivative or pharmaceutically acceptable salt thereof, and pharmaceutical composition containing same as active ingredient” (Research Cooperation Foundation of Yeungnam University, priority 2016, dated 2020).
Where two headings read alike, the source gives them in different places.

Experiments:
[1] = Cytotoxicity test (MTT), HT-29; format: cell-based; settings: human, HT-29, 48 h; for viability at 48 h, 0.01 µM / viability at 48 h, 0.1 µM / viability at 48 h, 1 µM / viability at 48 h, 10 µM / viability at 48 h, 100 µM: HT-29 cells (colorectal cancer cell line), read-out: Cell viability (% of control); for IC50 at 48 h: HT-29 cells, read-out: IC50 (μM), cytotoxicity
Procedure: (§1) The human colorectal cancer cell line HT-29 and the monocytic blood cancer-derived cell line U937 were cultured in a RPMI 1640 medium containing 10% FBS and 1% penicillin/streptomycin (PS) at 37° C. under a condition of 5% CO2, and when the cells used herein were grown to 80% or more, they were subcultured at a ratio of 1:3.
(§2) Each type of cells were cultured in a 96 well plate at a concentration of 1×10^5 cells/cm2, treated with a test compound by concentration in a medium only containing 1% FBS and 1% PS at 37° C. under a condition of 5% CO2 for 48 hours and reacted with 5 mg/mL of a 3-[4,5-dimethylthiazol-2-yl]-2,5-diphenyltetrazolium bromide (MTT) reagent for 4 hours, and then the medium was completely removed, the cells were treated with DMSO, formazan crystals were dissolved for 30 minutes, and then absorbance was measured at 540 nm.

[2] = Cytotoxicity test (MTT), U937; format: cell-based; settings: human, U937, 48 h; for viability at 48 h, 0.01 µM / viability at 48 h, 0.1 µM / viability at 48 h, 1 µM / viability at 48 h, 10 µM / viability at 48 h, 100 µM: U937 cells (monocytic blood cancer-derived cell line), read-out: Cell viability (% of control); for IC50 at 48 h: U937 cells
Procedure: as §1, §2

[3] = test system: TNF-α-induced adhesion of monocytes to intestinal epithelial cells; assay: Inhibitory activity against TNF-α-induced adhesion of monocytes (U937) to intestinal epithelial cells (HT-29); format: cell-based, human; settings: Homo sapiens
Procedure: HT-29 human colorectal cancer-derived epithelial cells and U937 human-derived monocytic cells were cultured in an RPMI 1640 medium containing 10% FBS and 1% penicillin/streptomycin (PS) at 37° C. under a condition of 5% CO2, and when the cells were grown to 80% or more in a culture flask, they were subcultured in a ratio of 1:3 to be used in this test. The HT-29 cells were cultured in a 24-well plate at a concentration of 2×10^5 cells/cm2, and then the medium only containing 1% FBS and 1% PS was pretreated with a test drug for 1 hour. Afterward, BCECF-loaded U937 cells by being treated with 10 μg/mL of BCECF-AM at 37° C. for 30 minutes and 10 ng/mL of TNF-α reacted with the HT-29 cells previously treated with the test drug at 37° C. for 3 hours. After the reaction, the medium was removed, and then the cells were washed with PBS twice to remove U937 cells that were not adhered. In a subsequent step, for cell lysis, 0.1% Triton X-100 (0.1 M Tris) was treated to allow a reaction at room temperature for 30 minutes, and then fluorescence was measured using a Fluostar optima microplate reader (BMG LABTECH, Germany) to quantify the cells (Carvalho et al., 1996; Thapa et al., 2008).

[4] = 1 μM test drug, HT-29/U937 adhesion, 10 ng/mL TNF-α, read-out: Inhibitory activity (%)

SMILES: O=c1[nH]cc(F)c(=O)[nH]1 [5-Fluorouracil, reference compound]
- viability at 48 h, 0.01 µM [1]: 85.5 ± 3.9%
- viability at 48 h, 0.1 µM [1]: 77.6 ± 4.6%
- viability at 48 h, 1 µM [1]: 61.9 ± 4.2%
- viability at 48 h, 10 µM [1]: 48.3 ± 2%
- viability at 48 h, 100 µM [1]: 36 ± 2.5%
- IC50 at 48 h [1]: 7.6 µM
- viability at 48 h, 0.01 µM [2]: 93 ± 2.7%
- viability at 48 h, 0.1 µM [2]: 89.8 ± 2.7%
- viability at 48 h, 1 µM [2]: 75.7 ± 0.6%
- viability at 48 h, 10 µM [2]: 71.3 ± 1.7%
- viability at 48 h, 100 µM [2]: 59.7 ± 0.2%
- IC50 at 48 h [2]: > 100 µM

SMILES: Cc1nc(NC(=O)Nc2ccc(F)cc2)c(C)c(C)c1O [Compound 16-7, 1-(4-Fluorophenyl)-3-(5-hydroxy-3,4,6-trimethylpyridin-2-yl)urea]
- inhibition at 1 µM [3, 4]: 14.6%

SMILES: COc1ccc(NC(=S)Nc2nc(C)c(O)c(C)c2C)cc1 [Compound 18-12, 1-(5-Hydroxy-3,4,6-trimethylpyridin-2-yl)-3-(4-methoxyphenyl)thiourea]
- inhibition at 1 µM [3, 4]: 13.3%

SMILES: Cc1nc(NC(=S)NC2CCCCC2)c(C)c(C)c1O [Compound 18-3, 1-cyclohexyl-3-(5-hydroxy-3,4,6-trimethylpyridin-2-yl)thiourea]
- inhibition at 1 µM [3, 4]: ≥ 50%
- viability at 48 h, 0.01 µM [1]: 90.9 ± 5.1%
- viability at 48 h, 0.1 µM [1]: 80.5 ± 10.4%
- viability at 48 h, 1 µM [1]: 66.8 ± 6.2%
- viability at 48 h, 10 µM [1]: 67 ± 5%
- viability at 48 h, 100 µM [1]: 51.3 ± 6.7%
- IC50 at 48 h [1]: > 100 µM
- viability at 48 h, 0.01 µM [2]: 88.8 ± 7%
- viability at 48 h, 0.1 µM [2]: 93.1 ± 1%
- viability at 48 h, 1 µM [2]: 97.6 ± 1.3%
- viability at 48 h, 10 µM [2]: 87.7 ± 2%
- viability at 48 h, 100 µM [2]: 84.3 ± 1.5%
- IC50 at 48 h [2]: > 100 µM

SMILES: Cc1nc(NC(=O)Nc2ccc(OC(F)(F)F)cc2)c(C)c(C)c1O [Compound 16-13, 1-(5-hydroxy-3,4,6-trimethylpyridin-2-yl)-3-(4-(trifluoromethoxy)phenyl)urea]
- inhibition at 1 µM [3, 4]: 12.6%

SMILES: Cc1ccc(NC(=O)Nc2nc(C)c(O)c(C)c2C)cc1 [Compound 16-9, 1-(5-hydroxy-3,4,6-trimethylpyridin-2-yl)-3-(p-tolyl)urea]
- inhibition at 1 µM [3, 4]: 20.1%

SMILES: Cc1nc(NC(=S)Nc2ccc(Br)cc2)c(C)c(C)c1O [Compound 18-7, 1-(4-bromophenyl)-3-(5-hydroxy-3,4,6-trimethylpyridin-2-yl)thiourea]
- inhibition at 1 µM [3, 4]: 27.8%

SMILES: Cc1nc(NC(=O)Nc2ccc(C(F)(F)F)cc2)c(C)c(C)c1O [Compound 16-11, 1-(5-hydroxy-3,4,6-trimethylpyridin-2-yl)-3-(4-(trifluoromethyl)phenyl)urea]
- inhibition at 1 µM [3, 4]: 52.7%

SMILES: Cc1nc(NC(=S)Nc2ccc(Cl)c(Cl)c2)c(C)c(C)c1O[Si](c1ccccc1)(c1ccccc1)C(C)(C)C [Compound 17-8c, 1-(5-((tert-butyldiphenylsilyl)oxy)-3,4,6-trimethylpyridin-2-yl)-3-(3,4-dichlorophenyl)thiourea]
- inhibition at 1 µM [3, 4]: 18.8%

SMILES: Cc1nc(OCCCc2ccccc2)c(C)c(C)c1O [Compound 28-6, 2,4,5-Trimethyl-6-(3-phenylpropoxy)pyridin-3-ol]
- inhibition at 1 µM [3, 4]: ≥ 50%

SMILES: Cc1nc(NC(=O)NCc2ccccc2)c(C)c(C)c1O [Compound 16-14, 1-benzyl-3-(5-hydroxy-3,4,6-trimethylpyridin-2-yl)urea]
- inhibition at 1 µM [3, 4]: 4.9%

SMILES: Cc1nc(NC(=S)Nc2cccc(C(F)(F)F)c2)c(C)c(C)c1OCc1ccccc1 [Compound 17-9a, 1-(5-benzyloxy-3,4,6-trimethylpyridin-2-yl)-3-(3-(trifluoromethyl)phenyl)thiourea]
- inhibition at 1 µM [3, 4]: 19.6%

SMILES: CCCCOc1nc(C)c(O)c(C)c1C [Compound 28-2, 6-butoxy-2,4,5-trimethylpyridin-3-ol]
- inhibition at 1 µM [3, 4]: 48.2%

SMILES: Cc1nc(OC2CCCC2)c(C)c(C)c1O [Compound 28-5, 6-cyclopentyloxy-2,4,5-trimethylpyridin-3-ol]
- inhibition at 1 µM [3, 4]: 28.8%

SMILES: CCCCCCCCOc1nc(C)c(O)c(C)c1C [Compound 28-3, 2,4,5-Trimethyl-6-(octyloxy)pyridin-3-ol]
- inhibition at 1 µM [3, 4]: 30.4%

SMILES: Cc1nc(NC(=O)Nc2ccc(Br)cc2)c(C)c(C)c1O [Compound 16-8, 1-(4-Bromophenyl)-3-(5-hydroxy-3,4,6-trimethylpyridin-2-yl)urea]
- inhibition at 1 µM [3, 4]: 17.2%

SMILES: COc1ccc(NC(=O)Nc2nc(C)c(O)c(C)c2C)cc1 [Compound 16-10, 1-(5-Hydroxy-3,4,6-trimethylpyridin-2-yl)-3-(4-methoxyphenyl)urea]
- inhibition at 1 µM [3, 4]: 12.6%

SMILES: Cc1nc(NC(=S)Nc2ccc(Cl)c(Cl)c2)c(C)c(C)c1OCc1ccccc1 [Compound 17-8a, 1-(5-benzyloxy-3,4,6-trimethylpyridin-2-yl)-3-(3,4-dichlorophenyl)thiourea]
- inhibition at 1 µM [3, 4]: 17.3%

SMILES: Nc1ccc(O)c(C(=O)O)c1 [Compound 5-ASA, 5-aminosalicylic acid, reference compound]
- inhibition at 1 µM [3, 4]: 3.8%
- inhibition at 1 µM ([3]; 1 μM, Table 8, read-out: 1 μM concentration inhibitory activity): 3.8%
- IC50 ([3]; HT-29/U937 adhesion, TNF-α-induced, read-out: IC50 (adhesion inhibition)): 18100 µM

SMILES: Cc1ccc(NC(=S)Nc2nc(C)c(O)c(C)c2C)cc1 [Compound 18-5, 1-(5-hydroxy-3,4,6-trimethylpyridin-2-yl)-3-(p-tolyl)thiourea]
- inhibition at 1 µM [3, 4]: 19.2%

SMILES: Cc1nc(O)c(C)c(C)c1O [Compound 28-1, 3,4,6-Trimethylpyridine-2,5-diol]
- inhibition at 1 µM [3, 4]: ≥ 50%

SMILES: Cc1nc(OCCC(C)C)c(C)c(C)c1O [Compound 28-4, 6-isopentyloxy-2,4,5-trimethylpyridin-3-ol]
- inhibition at 1 µM [3, 4]: 33.2%

SMILES: COc1cccc2c1C(=O)c1c(O)c3c(c(O)c1C2=O)C[C@@](O)(C(=O)CO)C[C@@H]3O[C@H]1C[C@H](N)[C@H](O)[C@H](C)O1 [Doxorubicin, reference compound]
- viability at 48 h, 0.01 µM [1]: 69.9 ± 1.1%
- viability at 48 h, 0.1 µM [1]: 66.9 ± 3.3%
- viability at 48 h, 1 µM [1]: 58.2 ± 6.4%
- viability at 48 h, 10 µM [1]: 53.2 ± 5.1%
- viability at 48 h, 100 µM [1]: 35.7 ± 2%
- IC50 at 48 h [1]: 12.9 µM
- viability at 48 h, 0.01 µM [2]: 93.6 ± 1.8%
- viability at 48 h, 0.1 µM [2]: 91.4 ± 3.3%
- viability at 48 h, 1 µM [2]: 42.2 ± 1.3%
- viability at 48 h, 10 µM [2]: 38.3 ± 0.6%
- viability at 48 h, 100 µM [2]: 33.2 ± 1.3%
- IC50 at 48 h [2]: 0.6 µM

SMILES: Cc1nc(NC(=S)Nc2cccc(C(F)(F)F)c2)c(C)c(C)c1O[Si](c1ccccc1)(c1ccccc1)C(C)(C)C [Compound 17-9c, 1-(5-((tert-Butyldiphenylsilyl)oxy)-3,4,6-trimethylpyridin-2-yl)-3-(3-(trifluoromethyl)phenyl)thiourea]
- inhibition at 1 µM [3, 4]: 25.9%

SMILES: COc1c(C)nc(NC(=S)Nc2ccc(Cl)c(Cl)c2)c(C)c1C [Compound 17-8b, 1-(3,4-dichlorophenyl)-3-(5-methoxy-3,4,6-trimethylpyridin-2-yl)thiourea]
- inhibition at 1 µM [3, 4]: 39.5%

SMILES: Cc1nc(NC(=O)NC(=O)c2ccccc2)c(C)c(C)c1O [Compound 16-16, N-((5-hydroxy-3,4,6-trimethylpyridin-2-yl)carbamoyl)benzamide]
- inhibition at 1 µM [3, 4]: 34.2%

SMILES: Cc1nc(NC(=O)Nc2ccc(C(C)C)cc2)c(C)c(C)c1O [Compound 16-15, 1-(5-hydroxy-3,4,6-trimethylpyridin-2-yl)-3-(4-isopropylphenyl)urea]
- inhibition at 1 µM [3, 4]: 11.5%

SMILES: COc1c(C)nc(NC(=S)Nc2cccc(C(F)(F)F)c2)c(C)c1C [Compound 17-9b, 1-(5-Methoxy-3,4,6-trimethylpyridin-2-yl)-3-(3-(trifluoromethyl)phenyl)thiourea]
- inhibition at 1 µM [3, 4]: 39%

SMILES: COc1ccc(NC(=S)Nc2nc(C)c(O[Si](c3ccccc3)(c3ccccc3)C(C)(C)C)c(C)c2C)cc1 [Compound 17-12c, 1-(5-((tert-Butyldiphenylsilyl)oxy)-3,4,6-trimethylpyridin-2-yl)-3-(4-methoxyphenyl)thiourea]
- inhibition at 1 µM [3, 4]: 16%
